According to patent US20080114007A1 (priority 2006, published 2008):

The compounds below were run against CSF-1R (Homo sapiens, UniProt P07333) (assay: Peptide (non-phosphorylated) assay, fluorescence polarization competition immunoassay). Details: 0.7 nM CSF-1R, 308 μM SYEGNSYTFIDPTQ peptide, 1 mM ATP, 80 min; mean of at least three determinations; read-out: c-fms Peptide IC50.
Chain of CSF-1R (P07333 20-972): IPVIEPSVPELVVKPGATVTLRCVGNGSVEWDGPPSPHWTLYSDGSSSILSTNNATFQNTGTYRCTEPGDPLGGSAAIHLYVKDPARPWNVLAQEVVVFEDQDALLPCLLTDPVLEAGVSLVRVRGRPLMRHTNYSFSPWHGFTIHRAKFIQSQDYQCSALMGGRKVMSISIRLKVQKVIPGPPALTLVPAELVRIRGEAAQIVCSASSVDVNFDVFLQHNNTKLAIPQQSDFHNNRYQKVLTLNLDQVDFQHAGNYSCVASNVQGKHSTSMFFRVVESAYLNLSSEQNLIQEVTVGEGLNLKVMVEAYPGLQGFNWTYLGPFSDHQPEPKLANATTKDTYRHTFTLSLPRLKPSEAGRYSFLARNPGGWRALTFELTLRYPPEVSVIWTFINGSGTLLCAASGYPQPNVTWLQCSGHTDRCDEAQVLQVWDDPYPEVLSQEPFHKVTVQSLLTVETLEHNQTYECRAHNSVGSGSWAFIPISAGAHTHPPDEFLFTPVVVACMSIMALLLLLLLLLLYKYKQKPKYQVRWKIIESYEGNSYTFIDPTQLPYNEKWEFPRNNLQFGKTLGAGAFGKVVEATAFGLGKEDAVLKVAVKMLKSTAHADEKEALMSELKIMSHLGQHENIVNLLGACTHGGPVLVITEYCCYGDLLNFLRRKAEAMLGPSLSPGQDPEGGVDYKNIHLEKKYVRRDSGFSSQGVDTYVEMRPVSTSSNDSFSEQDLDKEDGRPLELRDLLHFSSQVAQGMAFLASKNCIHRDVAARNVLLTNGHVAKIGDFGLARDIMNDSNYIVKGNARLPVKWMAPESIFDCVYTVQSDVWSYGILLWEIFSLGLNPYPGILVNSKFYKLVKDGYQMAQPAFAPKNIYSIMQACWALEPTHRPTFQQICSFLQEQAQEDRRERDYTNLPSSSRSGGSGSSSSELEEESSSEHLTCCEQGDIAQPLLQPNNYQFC
Assay type: biochemical
Procedure, shortened: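 Human CSF-1R kinase reaction started with ATP and run 80 min at room temperature, then stopped with EDTA. Phosphopeptide detected by fluorescence polarization competition using anti-phosphotyrosine antibody and PTK green tracer after 30 min. Controls used 4% DMSO, with EDTA added before reaction start for positive controls.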
`CCN1CCCC1CNC(=O)c1cccc(Nc2ncc3c(=O)c(C(=O)NOC)cn(-c4ccc5c(c4)CCC5)c3n2)c1` (stereo not drawn) [Cpd 193, 2-{3-[(1-ethyl-pyrrolidin-2-ylmethyl)-carbamoyl]-phenylamino}-8-indan-5-yl-5-oxo-5,8-dihydro-pyrido[2,3-d]pyrimidine-6-carboxylic acid methoxy-amide] showed an IC50 of 2.5 nM. `CONC(=O)c1cn(-c2ccc3c(c2)CCC3)c2nc(Nc3cccc(CCN4CCCC4)c3)ncc2c1=O` [Cpd 194, 8-indan-5-yl-5-oxo-2-[3-(2-pyrrolidin-1-yl-ethyl)-phenylamino]-5,8-dihydro-pyrido[2,3-d]pyrimidine-6-carboxylic acid methoxy-amide] was tested, and the IC50 was 0.65 nM. `CONC(=O)c1cn(-c2ccc3c(c2)CCC3)c2nc(Nc3cccc(N4CC(C)NC(C)C4)c3)ncc2c1=O` (stereo not drawn) [Cpd 195, 2-[3-(3,5-dimethyl-piperazin-1-yl)-phenylamino]-8-indan-5-yl-5-oxo-5,8-dihydro-pyrido[2,3-d]pyrimidine-6-carboxylic acid methoxy-amide] was tested, and the IC50 was 0.96 nM. `CONC(=O)c1cn(-c2ccc3c(c2)CCC3)c2nc(Nc3cccc(N4CCN(C(C)=O)CC4)c3)ncc2c1=O` [Cpd 196, 2-[3-(4-acetyl-piperazin-1-yl)-phenylamino]-8-indan-5-yl-5-oxo-5,8-dihydro pyrido[2,3-d]pyrimidine-6-carboxylic acid methoxy-amide] showed an IC50 of 1.7 nM. `CONC(=O)c1cn(-c2ccc3c(c2)CCC3)c2nc(Nc3cccc(C4CCN(C(C)=O)CC4)c3)ncc2c1=O` [Cpd 197, 2-[3-(1-acetyl-piperidin-4-yl)-phenylamino]-8-indan-5-yl-5-oxo-5,8-dihydro-pyrido[2,3-d]pyrimidine-6-carboxylic acid methoxy-amide] showed an IC50 of 1.4 nM. `CONC(=O)c1cn(-c2ccc3c(c2)CCC3)c2nc(Nc3cccc(C(=O)NCCN4CCOCC4)c3)ncc2c1=O` [Cpd 198, 8-indan-5-yl-2-[3-(2-morpholin-4-yl-ethylcarbamoyl)-phenylamino]-5-oxo-5,8-dihydro-pyrido[2,3-d]pyrimidine-6-carboxylic acid methoxy-amide] was tested, and the IC50 was 4.2 nM. `CONC(=O)c1cn(-c2ccc3c(c2)CCC3)c2nc(Nc3cccc(C(=O)NCCN(C)C)c3)ncc2c1=O` [Cpd 199, 2-[3-(2-dimethylamino-ethylcarbamoyl)-phenylamino]-8-indan-5-yl-5-oxo-5,8-dihydro-pyrido[2,3-d]pyrimidine-6-carboxylic acid methoxy-amide] was tested, and the IC50 was 1.4 nM. Compound `CONC(=O)c1cn(-c2ccc3c(c2)CCC3)c2nc(Nc3cccc(CCN4CCN(C)CC4)c3)ncc2c1=O` [Cpd 200, 8-indan-5-yl-2-{3-[2-(4-methyl-piperazin-1-yl)-ethyl]-phenylamino}-5-oxo-5,8-dihydro-pyrido[2,3-d]pyrimidine-6-carboxylic acid methoxy-amide] has an IC50 of 1.3 nM. With `CONC(=O)c1cn(-c2ccc3c(c2)CCC3)c2nc(Nc3cccc(N4CCN(S(C)(=O)=O)CC4)c3)ncc2c1=O` [Cpd 201, 8-indan-5-yl-2-[3-(4-methanesulfonyl-piperazin-1-yl)-phenylamino]-5-oxo-5,8-dihydro-pyrido[2,3-d]pyrimidine-6-carboxylic acid methoxy-amide] the IC50 was 1.8 nM. `CONC(=O)c1cn(-c2ccc3c(c2)CCC3)c2nc(Nc3cccc(N4CCN(S(=O)(=O)C(F)(F)F)CC4)c3)ncc2c1=O` [Cpd 202, 8-indan-5-yl-5-oxo-2-[3-(4-trifluoromethanesulfonyl-piperazin-1-yl)-phenylamino]-5,8-dihydro-pyrido[2,3-d]pyrimidine-6-carboxylic acid methoxy-amide] gave an IC50 of 68 nM. For `CONC(=O)c1cn(-c2ccc3c(c2)CCC3)c2nc(Nc3cccc(CCN4CCN(S(C)(=O)=O)CC4)c3)ncc2c1=O` [Cpd 203, 8-indan-5-yl-2-{3-[2-(4-methanesulfonyl-piperazin-1-yl)-ethyl]-phenylamino}-5-oxo-5,8-dihydro-pyrido[2,3-d]pyrimidine-6-carboxylic acid methoxy-amide], the IC50 was 1.4 nM. Work on `CONC(=O)c1cn(-c2ccc3c(c2)CCC3)c2nc(Nc3cccc(CCN4CCN(C(C)=O)CC4)c3)ncc2c1=O` [Cpd 204, 2-{3-[2-(4-acetyl-piperazin-1-yl)-ethyl]-phenylamino}-8-indan-5-yl-5-oxo-5,8-dihydro-pyrido[2,3-d]pyrimidine-6-carboxylic acid methoxy-amide] yielded an IC50 of 1.2 nM. `CONC(=O)c1cn(-c2ccc3c(c2)CCC3)c2nc(Nc3cccc(CCN4CCS(=O)(=O)CC4)c3)ncc2c1=O` [Cpd 205, 2-{3-[2-(1,1-dioxo-1λ^6-thiomorpholin-4-yl)-ethyl]-phenylamino}-8-indan-5-yl-5-oxo-5,8-dihydro-pyrido[2,3-d]pyrimidine-6-carboxylic acid methoxy-amide] was tested, and the IC50 was 1 nM. `CONC(=O)c1cn(-c2ccc3c(c2)CCC3)c2nc(Nc3ccc(CCN4CCS(=O)(=O)CC4)cc3)ncc2c1=O` [Cpd 206, 2-{4-[2-(1,1-dioxo-1λ^6-thiomorpholin-4-yl)-ethyl]-phenylamino}-8-indan-5-yl-5-oxo-5,8-dihydro-pyrido[2,3-d]pyrimidine-6-carboxylic acid methoxy-amide] gave an IC50 of 1.2 nM. In the case of `CCc1ccc(-n2cc(C(=O)NOC)c(=O)c3cnc(Nc4ccc(C5CCN(CCOC)CC5)cc4)nc32)cc1` [Cpd 207, 8-(4-ethyl-phenyl)-2-{4-[1-(2-methoxy-ethyl)-piperidin-4-yl]-phenylamino}-5-oxo-5,8-dihydro-pyrido[2,3-d]pyrimidine-6-carboxylic acid methoxy-amide], the IC50 is reported as 0.3 nM. `CCN1CCC(c2ccc(Nc3ncc4c(=O)c(C(=O)NOC)cn(C5CCC(C)(C)CC5)c4n3)cc2)CC1` [Cpd 208, 8-(4,4-dimethyl-cyclohexyl)-2-[4-(1-ethyl-piperidin-4-yl)-phenylamino]-5-oxo-5,8-dihydro-pyrido[2,3-d]pyrimidine-6-carboxylic acid methoxy-amide] showed an IC50 of 0.4 nM. `CONC(=O)c1cn(C2CCC(C)(C)CC2)c2nc(Nc3ccc(C4CCN(CCO)CC4)cc3)ncc2c1=O` [Cpd 210, 8-(4,4-dimethyl-cyclohexyl)-2-{4-[1-(2-hydroxy-ethyl)-piperidin-4-yl]-phenylamino}-5-oxo-5,8-dihydro-pyrido[2,3-d]pyrimidine-6-carboxylic acid methoxy-amide] was tested, and the IC50 was 0.25 nM. `CCc1cccc(-n2cc(C(=O)NOC)c(=O)c3cnc(Nc4ccc(C5CCN(C)CC5)cc4)nc32)c1` [Cpd 212, 8-(3-ethyl-phenyl)-2-[4-(1-methyl-piperidin-4-yl)-phenylamino]-5-oxo-5,8-dihydro-pyrido[2,3-d]pyrimidine-6-carboxylic acid methoxy-amide] gave an IC50 of 0.36 nM. In the case of `CCc1ccc(-n2cc(C(=O)NOC)c(=O)c3cnc(Nc4ccc(NCCCOC)cc4)nc32)cc1` [Cpd 213, 8-(4-ethyl-phenyl)-2-[4-(3-methoxy-propylamino)-phenylamino]-5-oxo-5,8-dihydro-pyrido[2,3-d]pyrimidine-6-carboxylic acid methoxy-amide], the IC50 is reported as 1.1 nM. In the case of `CONC(=O)c1cn(-c2ccc3c(c2)CCC3)c2nc(Nc3ccc(C(=O)NS(C)(=O)=O)cc3)ncc2c1=O` [Cpd 214, 8-indan-5-yl-2-(4-methanesulfonylaminocarbonyl-phenylamino)-5-oxo-5,8-dihydro-pyrido[2,3-d]pyrimidine-6-carboxylic acid methoxy-amide], the IC50 is reported as 1.6 nM. Work on `CCc1ccc(-n2cc(C(=O)NOC)c(=O)c3cnc(Nc4cccc(OCCOC)c4)nc32)cc1` [Cpd 215, 8-(4-ethyl-phenyl)-2-[3-(2-methoxy-ethoxy)-phenylamino]-5-oxo-5,8-dihydro-pyrido[2,3-d]pyrimidine-6-carboxylic acid methoxy-amide] yielded an IC50 of 1 nM. In the case of `CCc1ccc(-n2cc(C(=O)NOC)c(=O)c3cnc(Nc4cccc(OCCCOC)c4)nc32)cc1` [Cpd 216, 8-(4-ethyl-phenyl)-2-[3-(3-methoxy-propoxy)-phenylamino]-5-oxo-5,8-dihydro-pyrido[2,3-d]pyrimidine-6-carboxylic acid methoxy-amide], the IC50 is reported as 1.6 nM. With `CCc1ccc(-n2cc(C(=O)NOC)c(=O)c3cnc(Nc4ccc(NCCS(C)(=O)=O)cc4)nc32)cc1` [Cpd 217, 8-(4-ethyl-phenyl)-2-[4-(2-methanesulfonyl-ethylamino)-phenylamino]-5-oxo-5,8-dihydro-pyrido[2,3-d]pyrimidine-6-carboxylic acid methoxy-amide] the IC50 was 0.62 nM. For `CCOC(=O)CN1CCC(c2ccc(Nc3ncc4c(=O)c(C(=O)NOC)cn(-c5ccc6c(c5)CCC6)c4n3)cc2)CC1` [Cpd 218, {4-[4-(8-indan-5-yl-6-methoxycarbamoyl-5-oxo-5,8-dihydro-pyrido[2,3-d]pyrimidin-2-ylamino)-phenyl]-piperidin-1-yl}-acetic acid ethyl ester], the IC50 was 1.2 nM. Compound `CONC(=O)c1cn(-c2ccc3c(c2)CCC3)c2nc(Nc3ccc(C4CCN(CC(=O)O)CC4)cc3)ncc2c1=O` [Cpd 219, {4-[4-(8-indan-5-yl-6-methoxycarbamoyl-5-oxo-5,8-dihydro-pyrido[2,3-d]pyrimidin-2-ylamino)-phenyl]-piperidin-1-yl}-acetic acid] has an IC50 of 2.2 nM. In the case of `CONC(=O)c1cn(-c2ccc3c(c2)CCC3)c2nc(Nc3ccc(CCN4CCN(C)C(=O)C4)cc3)ncc2c1=O` [Cpd 220, 8-indan-5-yl-2-{4-[2-(4-methyl-3-oxo-piperazin-1-yl)-ethyl]-phenylamino}-5-oxo-5,8-dihydro-pyrido[2,3-d]pyrimidine-6-carboxylic acid methoxy-amide], the IC50 is reported as 0.75 nM.

Same assay, conditions: c-fms Peptide IC50, 0.7 nM CSF-1R, 308 μM SYEGNSYTFIDPTQ peptide, 1 mM ATP, 80 min; mean of at least three determinations
Work on `CONC(=O)c1cn(C2CCC(C)(C)CC2)c2nc(Nc3ccc(C4CCN(C)CC4)cc3)ncc2c1=O` [Cpd 209, 8-(4,4-dimethyl-cyclohexyl)-2-[4-(1-methyl-piperidin-4-yl)-phenylamino]-5-oxo-5,8-dihydro-pyrido[2,3-d]pyrimidine-6-carboxylic acid methoxy-amide] yielded an IC50 of 0.4 nM.
